Data on 11 compounds can be found in ChEMBL document CHEMBL4400545 (Bioorg Med Chem, 2019).

Test [1] addresses T1, Sodium- and chloride-dependent GABA transporter 1 (Rattus norvegicus, UniProt P23978). The experiment in a line: Inhibition of GAT-1 in rat brain homogenate. The format is tissue-based.
In test [2] the target is T2, GABA transporter 4 (Mus musculus) (UniProt P31650).
T2 sequence (whole entry): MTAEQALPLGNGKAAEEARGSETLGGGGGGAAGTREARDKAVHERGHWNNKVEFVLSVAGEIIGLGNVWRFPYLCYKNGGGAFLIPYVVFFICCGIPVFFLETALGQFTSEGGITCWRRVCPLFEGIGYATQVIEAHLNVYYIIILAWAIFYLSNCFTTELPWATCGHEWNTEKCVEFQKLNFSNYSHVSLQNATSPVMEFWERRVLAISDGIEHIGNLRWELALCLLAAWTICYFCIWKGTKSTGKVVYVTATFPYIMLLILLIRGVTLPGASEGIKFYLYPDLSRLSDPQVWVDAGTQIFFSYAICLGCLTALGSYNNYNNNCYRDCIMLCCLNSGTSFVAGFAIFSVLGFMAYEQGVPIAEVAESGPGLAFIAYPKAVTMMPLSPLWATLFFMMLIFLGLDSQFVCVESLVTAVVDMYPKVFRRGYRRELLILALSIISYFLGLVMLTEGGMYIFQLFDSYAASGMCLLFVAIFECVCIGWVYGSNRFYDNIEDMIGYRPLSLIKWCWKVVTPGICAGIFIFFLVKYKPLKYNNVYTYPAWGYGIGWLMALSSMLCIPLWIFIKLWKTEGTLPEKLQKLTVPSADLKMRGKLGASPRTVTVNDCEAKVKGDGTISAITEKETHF
The test can be described thus: Inhibition of mouse GAT-4 expressed in HEK293 cells assessed as remaining [3H]GABA uptake at 100 uM preincubated for 25 mins followed by [3H]GABA addition and measured after 4 mins by scintillation counting analysis. The format is cell-based.

The target of test [3] is T3, Sodium- and chloride-dependent GABA transporter 1 (Mus musculus, UniProt P31648). The experiment in a line: Binding affinity to mouse GAT-1 expressed in HEK293 cells after 4 hrs in presence of NO711 by LC-ESI-MS/ms analysis. The format is cell-based.
The test system of test [4] is Sodium- and chloride-dependent GABA transporter 2 (Mus musculus). The experiment in a line: Inhibition of mouse GAT-3 expressed in HEK293 cells assessed as remaining [3H]GABA uptake at 100 uM preincubated for 25 mins followed by [3H]GABA addition and measured after 4 mins by scintillation counting analysis.
The target of test [5] is T3, Sodium- and chloride-dependent GABA transporter 1. The experiment in a line: Inhibition of mouse GAT-1 expressed in HEK293 cells assessed as decrease in [3H]GABA uptake preincubated for 25 mins followed by [3H]GABA addition and measured after 4 mins by scintillation counting analysis. The format is cell-based.
For test [6], the system named is Sodium- and chloride-dependent betaine transporter (Mus musculus). The experiment in a line: Inhibition of mouse GAT-2 expressed in HEK293 cells assessed as remaining [3H]GABA uptake at 100 uM preincubated for 25 mins followed by [3H]GABA addition and measured after 10 mins by scintillation counting analysis.
The target of test [7] is T4, GABA transporter 4 (Mus musculus, UniProt P31650).
T4 sequence (P31650 whole entry): T2 sequence (whole entry)
The test can be described thus: Inhibition of mouse GAT-4 expressed in HEK293 cells assessed as decrease in [3H]GABA uptake preincubated for 25 mins followed by [3H]GABA addition and measured after 4 mins by scintillation counting analysis. Format: cell-based.

Test [8] deals with T1, Sodium- and chloride-dependent GABA transporter 1. The experiment in a line: Inhibition of GAT-1 in rat brain homogenate assessed as decrease in [3H]GABA uptake preincubated for 8 mins followed by [3H]GABA addition and measured after 8 mins by scintillation counting analysis. The format is tissue-based.
Test [9] addresses Sodium- and chloride-dependent GABA transporter 1 (Mus musculus) (UniProt P31648). The test can be described thus: Inhibition of mouse GAT-1 assessed as percentage of remaining specific binding of NO711 at 100 nM after 4 hrs by LC-ESI-MS/ms analysis relative to control.
Test [10] has the same target. The test can be described thus: Inhibition of mouse GAT-1 assessed as percentage of remaining specific binding of NO711 at 1 uM after 4 hrs by LC-ESI-MS/ms analysis relative to control.
For test [11] the target is unchanged. The test can be described thus: Inhibition of mouse GAT-1 assessed as percentage of remaining specific binding of NO711 at 40 uM after 4 hrs by LC-ESI-MS/ms analysis relative to control.
The target is the same in test [12]. The experiment in a line: Inhibition of mouse GAT-1 assessed as percentage of remaining specific binding of NO711 at 4 uM after 4 hrs by LC-ESI-MS/ms analysis relative to control.

By IC50 is commonly meant the concentration needed to halve the response being measured. Compound `O=C(O)[C@@H]1CCCN(CCO/N=C(\Cc2ccccc2F)c2ccccc2F)C1` displayed an IC50 in test [1] of 0.08 µM.

What is called Ki is the equilibrium dissociation constant of an inhibitor or competing ligand from its target. For the compound `O=C(O)[C@@H]1CCCN(CCO/N=C/c2ccccc2-c2ccc(F)cc2Cl)C1`, the values for the Activity in [2], in test [4] and in test [6] were 50.9%, 77.7% and 50.1%, respectively. Moreover, the inhibitory constant (Ki) in [3] was 0.00282 µM. In addition, in [5], the half-inhibitory concentration (IC50) is 0.0324 µM.

Regarding `O=C(O)[C@@H]1CCCN(CCO/N=C/c2ccccc2-c2ccc(F)cc2F)C1`, the values for the Activity in test [2], in [4] and in [6] were 62.5%, 75.5% and 56.6%, respectively. Further, the Ki in [3] is 0.00589 µM. The IC50 in [5] was 0.102 µM.

With `O=C(O)[C@@H]1CCCN(CCO/N=C/c2ccccc2-c2ccc(Cl)cc2Cl)C1`, the half-inhibitory concentration (IC50) in test [7] is 63.1 µM; in test [5], 0.0603 µM. Besides, the Ki in [3] is 0.00589 µM.

Turning to `O=C(O)C1=CCCN(CCON=C(c2ccccc2)c2ccccc2)C1`, the concentration for half-maximal inhibition (IC50) in [8] came out at 0.04 µM.

Take `O=C(O)C1CCCN(CCO/N=C/c2ccccc2-c2ccc(Cl)cc2Cl)C1` (racemic): the IC50 in test [7] is 70.8 µM; in test [5] it was 0.0389 µM. Moreover, the Ki in test [3] was 0.0105 µM. The Activity result is “Below limit of detection” in test [9] and 5% in test [10].

Regarding `O=C(O)C1CCCN(CCO/N=C/c2ccccc2-c2ccc(F)cc2F)C1` (racemic), the Activity came to 62.5% in [2]; 90.9% in [4]; 16% in test [9]; 78.3% in [6]; 17% in [10]. The inhibition constant Ki in [3] is 0.0138 µM. The 50% inhibitory concentration (IC50) in test [5] is 0.0851 µM.

For the compound `O=C(O)C1CCCN(CCO/N=C/c2cc(F)ccc2-c2ccc(Cl)cc2Cl)C1` (racemic), the half-maximal inhibitory concentration (IC50) is 32.4 µM in [7] and 0.17 µM in test [5]. Besides, the Ki in [3] was 0.017 µM. Further, the figures for the Activity entry in test [9] and in test [10] were “Below limit of detection” and 16%, respectively.

On to `O=C(O)C1CCCN(CCO/N=C/c2sccc2-c2ccc(Cl)cc2Cl)C1` (racemic), for which the IC50 in test [7] was 72.4 µM; in test [5] it was 0.0282 µM. Also, the inhibition constant Ki in test [3] is 0.0117 µM. Besides, the Activity entry in test [9] is “Below limit of detection”; in test [10], 12%.

Regarding `O=C(O)C1CCCN(CCO/N=C/c2ccccc2-c2ccc(F)cc2Cl)C1` (racemic), the Activity in test [2] was 80.9%; in test [4], 62.6%; in test [9] it was “Below limit of detection”; in test [6], 61.6%; in [10] it was 11%. Also, in [3], the Ki was 0.01 µM. Besides, in [5], the IC50 is 0.0661 µM.

As for `NOCCN1CCCC(C(=O)O)C1` (racemic), the Activity in [11] stood at 92%; in test [12], 99%.
